≈ marks a conversion by molar mass, not a printed value.
Columns and labels:
Fatty acid synthase = Fatty acid synthase (Gallus gallus, UniProt P12276); test: Inhibition of Fatty acid synthase in chicken liver using [3H]-acetyl CoA as substrate preincubated for 30 mins followed by substrate addition and measured after 10 mins in presence of NADPH by scintillation counting analysis; type: tissue-based
HCT-116 = test: Cytotoxicity against human HCT-116 cells assessed as cell growth inhibition incubated for 72 hrs by celltiter 96 aqueous cell proliferation assay; type: functional, cell-based; settings: HCT-116, 72 h
[1] = molecular target: RAC-alpha serine/threonine-protein kinase (Homo sapiens, UniProt P31749); test: Inhibition of AKT1 (unknown origin) in presence of ATP by ELISA
BT-474 = test: Cytotoxicity against human BT-474 cells assessed as reduction in cell viability incubated for 48 hrs by MTS assay; type: functional, cell-based; settings: for IC50: BT-474, 48 h; for CC50: BT-474, time 48 hrs
MIA PaCa-2 = test: Cytotoxicity against human MIA PaCa-2 cells assessed as reduction in cell viability incubated for 48 hrs by MTS assay; type: functional, cell-based; settings: for IC50: MIA PaCa-2, 48 h; for CC50: MIA PaCa-2, time 48 hrs
MDA-MB-231 = test: Cytotoxicity against human MDA-MB-231 cells assessed as reduction in cell viability incubated for 48 hrs by MTS assay; type: functional, cell-based; settings: for IC50: MDA-MB-231, 48 h; for CC50: MDA-MB-231, time 48 hrs
JIMT-1 = test: Cytotoxicity against human JIMT-1 cells assessed as reduction in cell viability incubated for 48 hrs by MTS assay; type: functional, cell-based; settings: for IC50: JIMT-1, 48 h; for CC50: JIMT-1, time 48 hrs
PC-3 = test: Cytotoxicity against human PC-3 cells assessed as reduction in cell viability incubated for 48 hrs by MTS assay; type: functional, cell-based; settings: for IC50: PC-3, 48 h; for CC50: PC-3, time 48 hrs
DU-145 = test: Cytotoxicity against human DU-145 cells assessed as reduction in cell viability incubated for 48 hrs by MTS assay; type: functional, cell-based; settings: for IC50: DU-145, 48 h; for CC50: DU-145, time 48 hrs
K562 = test: Cytotoxicity against human K562 cells; type: functional, cell-based
A549 [2] = test: Cytotoxicity against human A549 cells incubated for 72 hrs by MTT assay; type: functional, cell-based; settings: A549, 72 h
HepG2 = test: Cytotoxicity against human HepG2 cells incubated for 48 hrs by MTT assay; type: functional, cell-based; settings: HepG2, 48 h
A549 [3] = test: Cytotoxicity against human A549 cells incubated for 48 hrs by MTT assay; type: functional, cell-based; settings: A549, 48 h
HeLa = test: Cytotoxicity against human HeLa cells incubated for 48 hrs by MTT assay; type: functional, cell-based
SGC-7901 = test: Cytotoxicity against human SGC-7901 cells incubated for 48 hrs by MTT assay; type: functional, cell-based; settings: SGC-7901, 48 h
MCF7 = test: Cytotoxicity against human MCF7 cells incubated for 48 hrs by MTT assay; type: functional, cell-based; settings: MCF7, 48 h

Chain of Fatty acid synthase (P12276 whole entry): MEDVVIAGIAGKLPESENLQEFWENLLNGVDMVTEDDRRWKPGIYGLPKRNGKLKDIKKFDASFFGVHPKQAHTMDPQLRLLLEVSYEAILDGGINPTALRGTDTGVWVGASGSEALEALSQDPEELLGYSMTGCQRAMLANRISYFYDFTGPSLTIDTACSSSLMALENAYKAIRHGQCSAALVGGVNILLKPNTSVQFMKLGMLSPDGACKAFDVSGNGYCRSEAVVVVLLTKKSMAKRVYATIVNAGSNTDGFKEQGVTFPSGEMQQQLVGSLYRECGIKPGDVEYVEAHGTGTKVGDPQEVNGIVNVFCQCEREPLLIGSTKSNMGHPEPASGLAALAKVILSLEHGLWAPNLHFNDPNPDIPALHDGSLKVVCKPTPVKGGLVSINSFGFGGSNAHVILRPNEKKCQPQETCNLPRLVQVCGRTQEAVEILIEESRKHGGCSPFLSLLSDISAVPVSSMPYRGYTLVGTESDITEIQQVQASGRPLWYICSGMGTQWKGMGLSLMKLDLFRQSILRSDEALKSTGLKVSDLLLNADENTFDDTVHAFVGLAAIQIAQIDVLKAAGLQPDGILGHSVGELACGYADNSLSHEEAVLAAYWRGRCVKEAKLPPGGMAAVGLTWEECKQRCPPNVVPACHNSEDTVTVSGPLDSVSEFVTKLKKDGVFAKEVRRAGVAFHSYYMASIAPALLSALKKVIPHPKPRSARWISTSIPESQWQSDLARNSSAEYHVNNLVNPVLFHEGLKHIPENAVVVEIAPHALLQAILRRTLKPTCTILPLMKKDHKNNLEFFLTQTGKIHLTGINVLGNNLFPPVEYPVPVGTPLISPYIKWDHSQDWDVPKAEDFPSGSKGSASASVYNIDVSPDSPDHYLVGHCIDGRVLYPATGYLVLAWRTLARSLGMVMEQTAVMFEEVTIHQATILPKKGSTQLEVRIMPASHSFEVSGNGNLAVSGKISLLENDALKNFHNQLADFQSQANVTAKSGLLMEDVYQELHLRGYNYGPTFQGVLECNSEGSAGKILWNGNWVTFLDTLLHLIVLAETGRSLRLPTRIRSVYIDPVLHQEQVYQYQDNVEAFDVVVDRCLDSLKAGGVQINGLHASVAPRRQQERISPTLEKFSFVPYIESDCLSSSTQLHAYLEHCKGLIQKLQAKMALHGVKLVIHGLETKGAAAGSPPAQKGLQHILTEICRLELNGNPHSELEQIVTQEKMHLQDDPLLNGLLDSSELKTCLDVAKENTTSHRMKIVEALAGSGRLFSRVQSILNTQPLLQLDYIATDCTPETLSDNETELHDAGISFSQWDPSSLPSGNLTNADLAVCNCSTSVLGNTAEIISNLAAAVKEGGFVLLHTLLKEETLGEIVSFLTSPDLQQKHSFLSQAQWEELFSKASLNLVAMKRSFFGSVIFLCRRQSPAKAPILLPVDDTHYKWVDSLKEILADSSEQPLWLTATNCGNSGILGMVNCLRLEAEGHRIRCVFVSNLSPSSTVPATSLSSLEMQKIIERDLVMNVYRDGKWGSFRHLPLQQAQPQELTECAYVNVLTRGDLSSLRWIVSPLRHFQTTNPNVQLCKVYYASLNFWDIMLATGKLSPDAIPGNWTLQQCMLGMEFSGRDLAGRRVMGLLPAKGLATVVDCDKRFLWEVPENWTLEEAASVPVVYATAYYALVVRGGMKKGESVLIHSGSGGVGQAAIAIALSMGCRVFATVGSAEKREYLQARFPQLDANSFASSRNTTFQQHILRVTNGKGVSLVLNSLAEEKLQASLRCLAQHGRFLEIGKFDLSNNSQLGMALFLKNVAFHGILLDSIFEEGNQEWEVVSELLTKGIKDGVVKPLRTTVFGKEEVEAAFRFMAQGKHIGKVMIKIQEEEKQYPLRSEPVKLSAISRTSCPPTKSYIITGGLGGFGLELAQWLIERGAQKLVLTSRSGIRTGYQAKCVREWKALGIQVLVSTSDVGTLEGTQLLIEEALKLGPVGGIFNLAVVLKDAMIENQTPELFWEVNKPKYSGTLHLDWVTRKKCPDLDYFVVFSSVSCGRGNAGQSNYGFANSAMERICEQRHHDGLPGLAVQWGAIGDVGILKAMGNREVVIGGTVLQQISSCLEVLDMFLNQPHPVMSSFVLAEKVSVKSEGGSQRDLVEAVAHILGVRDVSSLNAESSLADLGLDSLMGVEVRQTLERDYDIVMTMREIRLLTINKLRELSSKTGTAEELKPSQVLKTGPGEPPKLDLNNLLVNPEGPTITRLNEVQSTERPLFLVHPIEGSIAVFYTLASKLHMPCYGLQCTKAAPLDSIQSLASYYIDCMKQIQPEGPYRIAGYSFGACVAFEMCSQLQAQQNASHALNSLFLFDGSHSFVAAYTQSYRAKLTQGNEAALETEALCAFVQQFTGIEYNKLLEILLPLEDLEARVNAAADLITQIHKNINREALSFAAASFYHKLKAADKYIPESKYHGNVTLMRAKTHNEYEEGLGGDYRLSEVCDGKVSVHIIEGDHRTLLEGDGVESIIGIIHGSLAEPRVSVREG
Chain of RAC-alpha serine/threonine-protein kinase (P31749 whole entry): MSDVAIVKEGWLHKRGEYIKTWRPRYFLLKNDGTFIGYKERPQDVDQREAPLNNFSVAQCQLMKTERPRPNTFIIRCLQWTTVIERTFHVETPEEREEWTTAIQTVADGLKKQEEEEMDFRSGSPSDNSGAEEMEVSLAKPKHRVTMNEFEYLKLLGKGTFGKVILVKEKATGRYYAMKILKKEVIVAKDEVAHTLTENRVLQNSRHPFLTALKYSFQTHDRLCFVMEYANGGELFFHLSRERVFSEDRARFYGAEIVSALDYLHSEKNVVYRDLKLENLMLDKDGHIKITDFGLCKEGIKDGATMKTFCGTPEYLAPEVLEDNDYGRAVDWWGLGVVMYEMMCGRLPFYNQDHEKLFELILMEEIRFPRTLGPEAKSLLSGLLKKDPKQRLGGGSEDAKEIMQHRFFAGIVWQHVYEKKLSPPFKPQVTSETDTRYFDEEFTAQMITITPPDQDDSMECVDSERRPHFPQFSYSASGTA

CC/C=C\C/C=C\C/C=C\CCCCCCCC(=O)OC[C@H](CO[C@@H]1O[C@H](CO[C@H]2O[C@H](CO)[C@H](O)[C@H](O)[C@H]2O)[C@H](O)[C@H](O)[C@H]1O)OC(=O)CCCCCCCCCCCCCCCCC was tested, and the IC50 (Fatty acid synthase) was 15.6 µM.
Compound CO[C@@H]1[C@H](O[C@H]2C[C@]3(O)O[C@H]([C@@H]2C)[C@H](C)[C@H](OC)/C=C(\C)C[C@H](/C=C/C#C[C@H]2C[C@@H]2Cl)OC(=O)[C@H]3C)O[C@@H](C)[C@H]2NC(=O)O[C@]21C has an IC50 (HCT-116) of 30 µM.
CCCCCCCCCCCCCCCCCC(=O)OCC(COC(=O)CCCCCCCCCCCCCCCCC)O[C@@H]1O[C@H](C(=O)O)[C@@H](O)[C@H](O)[C@H]1O showed an IC50 [1] greater than 100 µM.
Work on CCCCCCCCCCCCCCCCOC[C@H](CO[C@H]1O[C@H](CNC(=O)CCCc2ccc(N(CCCl)CCCl)cc2)[C@@H](O)[C@H](O)[C@H]1N)OC yielded an IC50 (BT-474) of 6 µM, an IC50 (MIA PaCa-2) of 6 µM and an IC50 (MDA-MB-231) of 6 µM. It also gave an IC50 (JIMT-1) of 6 µM, an IC50 (PC-3) of 6 µM and an IC50 (DU-145) of 6 µM.
In the case of CC/C=C\C/C=C\C/C=C\CCCCCCCC(=O)OC[C@H](CO[C@@H]1O[C@H](CO[C@H]2O[C@H](CO)[C@H](O)[C@H](O)[C@H]2O)[C@H](O)[C@H](O)[C@H]1O)OC(=O)CCCCCCCCCCCCCCCCCCC, the IC50 (Fatty acid synthase) is reported as 15.6 µM.
With CC(=O)OC[C@H]1O[C@@H](Oc2cc(C)c(O)cc2C/C=C(\C)CC/C=C(\C)C[C@H](C=C(C)C)OC(C)=O)[C@H](O)[C@@H](OC(C)=O)[C@H]1OC(C)=O the IC50 (K562) was 3.1 µg/mL (≈ 4.59 µM).
In the case of CC/C=C\C/C=C\C/C=C\CCCCCCCC(=O)O[C@H](COC(=O)CCCCCCCCCCCCCCC)CO[C@@H]1O[C@H](CO[C@H]2O[C@H](CO)[C@H](O)[C@H](O)[C@H]2O)[C@H](O)[C@H](O)[C@H]1O, the IC50 (Fatty acid synthase) is reported as 15.6 µM.
Work on CCCCCCCCCCCCCCCCOC[C@H](CO[C@@H]1O[C@H](CN)[C@@H](O)[C@H](O)[C@H]1N)OC yielded a CC50 (BT-474) of 7.5 µM, a CC50 (MIA PaCa-2) of 3.5 µM and a CC50 (MDA-MB-231) of 3 µM. The CC50 (JIMT-1) was 3.5 µM, the CC50 (PC-3) was 3.5 µM and the CC50 (DU-145) was 5.2 µM.
CO[C@@H]1/C=C(\C)C[C@H](/C=C/C=C/C#C[C@@H]2C[C@H]2Cl)OC(=O)C[C@]2(O)C[C@H](O[C@@H]3O[C@@H](C)[C@H]4NC(=O)O[C@@]4(C)[C@H]3OC)[C@H](C)[C@@H](O2)[C@@H]1C gave an IC50 (HCT-116) of 61.9 µM.
For CCCCCCCCCCCCCCCCCCCC(=O)O[C@H](COC(=O)CCCCCCCCCCCCCCC)CO[C@@H]1O[C@H](CO[C@H]2O[C@H](CO)[C@H](O)[C@H](O)[C@H]2O)[C@H](O)[C@H](O)[C@H]1O, the IC50 (Fatty acid synthase) was 15.6 µM.
CCCCCCCCCCCCC(=O)OCc1cn(C[C@H]2O[C@H](OC)[C@H](O)[C@@H](O)[C@H]2O)nn1 gave an IC50 (A549 [2]) of 21 µM.
Compound CCCCCCCCCCCCCC(=O)OCc1cn(C[C@H]2O[C@H](OC)[C@H](O)[C@@H](O)[C@H]2O)nn1 has an IC50 (A549 [2]) of 21 µM.
Compound CCCCC[C@@H]1CCCCCCCCCC(=O)O[C@H]2[C@@H](O)[C@H](O[C@H]3[C@H](O1)O[C@H](CO)[C@@H](O)[C@@H]3O)O[C@@H](C)[C@@H]2O[C@@H]1O[C@@H](C)[C@H](O[C@@H]2O[C@@H](C)[C@H](OC(=O)[C@@H](C)CC)[C@@H](OC(=O)/C=C/c3ccccc3)[C@H]2O)[C@@H](O[C@@H]2O[C@@H](C)[C@H](O)[C@@H](O)[C@H]2O)[C@H]1OC(=O)[C@@H](C)CC has an IC50 (HepG2) of 4.28 µM, an IC50 (A549 [3]) of 4.28 µM and an IC50 (HeLa) of 4.28 µM. It also gave an IC50 (SGC-7901) of 4.28 µM and an IC50 (MCF7) of 4.28 µM.
With CCCCCCCCCCCCCC(=O)OCc1cn(C[C@H]2O[C@H](OC)[C@H](O)[C@@H](O)[C@@H]2O)nn1 the IC50 (A549 [2]) was 21 µM.
COC(C)(C)/C=C/C/C(C)=C/CC/C(C)=C/Cc1cc(O)c(C)cc1O[C@@H]1O[C@H](COC(C)=O)[C@H](OC(C)=O)[C@H](OC(C)=O)[C@H]1O was tested, and the IC50 (K562) was 9.4 µg/mL (≈ 14.5 µM).
In the case of CCCCCCCCCCCC(=O)OCc1cn(C[C@H]2O[C@H](OC)[C@H](O)[C@@H](O)[C@H]2O)nn1, the IC50 (A549 [2]) is reported as 21 µM.
CC(=O)OC[C@H]1O[C@@H](Oc2cc(C)c(O)cc2C/C=C(\C)CC/C=C(\C)C[C@@H](O)C=C(C)C)[C@H](O)[C@@H](OC(C)=O)[C@H]1OC(C)=O was tested, and the IC50 (K562) was 2.6 µg/mL (≈ 4.11 µM).
For CCCCCCCCCCCCCCCCOC[C@H](CO[C@H]1O[C@H](CN)[C@@H](O)[C@H](O)[C@H]1NC(=O)CCCc1ccc(N(CCCl)CCCl)cc1)OC, the IC50 (BT-474) was 6 µM, the IC50 (MIA PaCa-2) was 6 µM and the IC50 (MDA-MB-231) was 6 µM. It also gave an IC50 (JIMT-1) of 6 µM, an IC50 (PC-3) of 6 µM and an IC50 (DU-145) of 6 µM.
CCCCCCCC(=O)O[C@H]1[C@H](O[C@@H]2[C@H]3OC(=O)CCCCCCCCC[C@@H](CCCCC)O[C@@H]4O[C@H](CO)[C@@H](O)[C@H](O)[C@H]4O[C@H](O[C@H]2C)[C@@H]3O)O[C@@H](C)[C@H](O[C@@H]2O[C@@H](C)[C@H](OC(=O)[C@@H](C)CC)[C@@H](OC(=O)/C=C/c3ccccc3)[C@H]2O)[C@H]1O[C@@H]1O[C@@H](C)[C@H](O)[C@@H](O)[C@H]1O showed an IC50 (HepG2) of 4.28 µM, an IC50 (A549 [3]) of 4.28 µM and an IC50 (HeLa) of 4.28 µM. For the same compound, the IC50 (SGC-7901) was 4.28 µM and the IC50 (MCF7) was 4.28 µM.
CCCCCCCCCCCCCCCCCCC/C=C/C(=O)OC[C@H](CO[C@@H]1O[C@H](CO[C@H]2O[C@H](CO)[C@H](O)[C@H](O)[C@H]2O)[C@H](O)[C@H](O)[C@H]1O)OC(=O)CCCCCCCCCCCCCCCCCCC gave an IC50 (Fatty acid synthase) of 15.6 µM.
Work on CCCCCCCCCC(=O)O[C@H]1[C@H](O[C@@H]2[C@H]3OC(=O)CCCCCCCCC[C@@H](CCCCC)O[C@@H]4O[C@H](CO)[C@@H](O)[C@H](O)[C@H]4O[C@H](O[C@H]2C)[C@@H]3O)O[C@@H](C)[C@H](O[C@@H]2O[C@@H](C)[C@H](O/C(O)=C(/C)CC)[C@@H](O)[C@H]2OC(=O)/C=C/c2ccccc2)[C@H]1O[C@@H]1O[C@@H](C)[C@H](O)[C@@H](O)[C@H]1O yielded an IC50 (HepG2) of 4.28 µM, an IC50 (A549 [3]) of 4.28 µM and an IC50 (HeLa) of 4.28 µM. It also gave an IC50 (SGC-7901) of 4.28 µM and an IC50 (MCF7) of 4.28 µM.
Work on CCCCCCCCCC(=O)O[C@H]1[C@H](O[C@@H]2[C@H]3OC(=O)CCCCCCCCC[C@@H](CCCCC)O[C@@H]4O[C@H](CO)[C@@H](O)[C@H](O)[C@H]4O[C@H](O[C@H]2C)[C@@H]3O)O[C@@H](C)[C@H](O[C@@H]2O[C@@H](C)[C@H](OC(=O)[C@@H](C)CC)[C@@H](O)[C@H]2O)[C@H]1O[C@@H]1O[C@@H](C)[C@H](O)[C@@H](O)[C@H]1O yielded an IC50 (HepG2) of 4.28 µM, an IC50 (A549 [3]) of 4.28 µM and an IC50 (HeLa) of 4.28 µM. For the same compound, the IC50 (SGC-7901) was 4.28 µM and the IC50 (MCF7) was 4.28 µM.
CC(=O)OC[C@H]1O[C@@H](Oc2cc(C)c(O)cc2C/C=C(\C)CC/C=C(\C)CCC=C(C)C)[C@H](O)[C@@H](OC(C)=O)[C@H]1OC(C)=O showed an IC50 (K562) of 5.2 µg/mL (≈ 8.43 µM).
CCCCCCCCCOC(=O)O[C@H](COC(=O)CCCCCCCCC)COP(=O)(O)O[C@@H]1[C@H](O)[C@H](OP(=O)(O)O)[C@@H](O)[C@H](O)[C@H]1O was tested, and the IC50 [1] was greater than 100 µM.
With CCCCCCCCCC(=O)O[C@H]1[C@H](O[C@@H]2[C@H]3OC(=O)CCCCCCCCC[C@@H](CCCCC)O[C@@H]4O[C@H](CO)[C@@H](O)[C@H](O)[C@H]4O[C@H](O[C@H]2C)[C@@H]3O)O[C@@H](C)[C@H](O[C@@H]2O[C@@H](C)[C@H](OC(=O)[C@@H](C)CC)[C@@H](OC(=O)/C=C/c3ccccc3)[C@H]2O)[C@H]1O[C@@H]1O[C@@H](C)[C@H](O)[C@@H](O)[C@H]1O the IC50 (HepG2) was 4.28 µM, the IC50 (A549 [3]) was 4.28 µM and the IC50 (HeLa) was 4.28 µM. For the same compound, the IC50 (SGC-7901) was 4.28 µM and the IC50 (MCF7) was 4.28 µM.
With CC(=O)OC[C@H]1O[C@@H](Oc2cc(C)c(O)cc2C/C=C(\C)CC/C=C(\C)CC(=O)CC(C)C)[C@H](O)[C@@H](OC(C)=O)[C@H]1OC(C)=O the IC50 (K562) was 8.1 µg/mL (≈ 12.8 µM).
Compound O=C(O)CCCc1ccc(N(CCCl)CCCl)cc1 [CHLORAMBUCIL] has a CC50 (BT-474) greater than 150 µM, a CC50 (MIA PaCa-2) greater than 150 µM and a CC50 (MDA-MB-231) greater than 150 µM. For the same compound, the CC50 (JIMT-1) was greater than 150 µM, the CC50 (PC-3) was greater than 150 µM and the CC50 (DU-145) was greater than 150 µM.
